Results as given in PMC12670160, “A drug-repurposing screen of FDA- and EMA-approved drugs identifies two NF-κB inhibitors active against eumycetoma” (Journal of Antimicrobial Chemotherapy, 2025).
≈ marks a conversion by molar mass, not a printed value. Structures can show the parent of a compound that is named as a salt. Where two headings read alike, the source gives them in different places.

Legend:
[1] = system: M. mycetomatis strain mm55; assay: IC50 and MIC determination, CellTiter-Glo, strain mm55; assay type: cell-based, Madurella mycetomatis; conditions: Madurella mycetomatis; for MIC: concentration with complete growth inhibition
M. mycetomatis strain P1 = assay: IC50 and MIC determination, CellTiter-Glo, strain P1; assay type: cell-based, Madurella mycetomatis; conditions: Madurella mycetomatis, P1
M. mycetomatis = assay: In vitro susceptibility, averages over M. mycetomatis isolates (average metabolic activity at 2 µM, mean MIC); assay type: cell-based; conditions: Madurella mycetomatis, 96 h, 4 days at 37°C, CellTiter-Glo, average of 3 isolates, 20% or below = inhibition
Description: M. mycetomatis isolate MM55 was used to screen the Oncode library. This strain was kindly provided by Prof. […] The three M. mycetomatis isolates were identified by ITS sequencing and maintained at −80°C at Erasmus MC. Prior to in vitro screening, isolates were cultured on Sabouraud agar plates (BD, Erembodegem, Belgium) at 37°C.
The Oncode Drug Repurposing library was based on the drug repurposing library from the Drug Repurposing Hub of the Broad Institute and recreated by the Oncode institute.[13] […] Each well of the 384-well plates contained 0.6 µL of a 200 µM stock concentration of compound, resulting in a final concentration of 2 µM when the fungus was added. […] Furthermore, this concentration could also be reached in the G. mellonella larvae.[8],[11] The prepared 384-well plates were transferred on dry ice to the Erasmus MC and stored at −80°C until they were screened.
Each plate also contained a growth control (60 µL of M. mycetomatis hyphal suspension, plus 0.6 µL of DMSO) and a negative control (60 µL of culture medium, plus 0.6 µL of DMSO). Plates were then incubated for 4 days at 37°C, after which 30 µL of CellTiter-Glo 3D Cell Viability reagent was added to every well.[19] After 25 min of incubation at room temperature, the luminescence was measured with a CytoFluor Series 4000 luminometer (PerSeptive Biosystems, Framingham, MA, USA). To determine the metabolic activity, the following formula was used:
Percentagemetabolicactivity=(Absorbancetestluminensence−AbsorbanceNCluminensence/AbsorbanceGCluminensence−AbsorbanceNCluminensence)×100
where, GC is growth control and NC is negative control. The luminescence measured for the GC is considered as 100% metabolic activity. The luminescence for the NC is considered as 0% metabolic activity.

M. mycetomatis strain I1 = assay: IC50 and MIC determination, CellTiter-Glo, strain I1; assay type: cell-based, Madurella mycetomatis; conditions: Madurella mycetomatis, I1
[2] = system: M. mycetomatis strain mm55; conditions: 96 h, 2 µM

Row | Molecule | % viability ([2]; m. mycetomatis hyphae) [%] | further results
1 | C=C(c1ccccc1OCc1cccc(Cl)c1)n1ccnc1 [Cloconazole HCl] | – | IC50 ([1]; concentration inhibiting 50% of fungal hyphae growth): 0.85 µM; MIC [1]: 1 µM; IC50 (M. mycetomatis strain P1): 0.74 µM; MIC (M. mycetomatis strain P1): 1 µM; activity at 2 µM (M. mycetomatis): 1.7%; IC50 (M. mycetomatis strain I1): 0.41 µM; MIC (M. mycetomatis strain I1): 0.5 µM
2 | Clc1ccccc1C(c1ccccc1)(c1ccccc1)n1ccnc1 [Clotrimazole] | – | MIC [1]: 1 µM (≈ 0.345 µg/mL); MIC (M. mycetomatis strain P1): 1 µM (≈ 0.345 µg/mL); activity at 2 µM (M. mycetomatis): 4%; MIC (M. mycetomatis strain I1): 0.5 µM (≈ 0.172 µg/mL)
3 | C[N+]12CCC(CC1)C(OC(=O)C(O)(c1ccccc1)c1ccccc1)C2 (centres unmarked) [ONC0000315, clidinium bromide] | 88.97 | –
4 | COc1cc2c(c(OC)c1OC)-c1ccc(OC)c(=O)cc1[C@@H](NC(C)=O)CC2 [ONC0000317, colchicine] | 73.45 | –
5 | CCC(=O)O[C@@H]1CC(=O)O[C@H](C)C/C=C/C=C/[C@H](O)[C@H](C)C[C@H](CC=O)[C@H](O[C@@H]2O[C@H](C)[C@@H](O[C@H]3C[C@@](C)(O)[C@@H](OC(=O)CC)[C@H](C)O3)[C@H](N(C)C)[C@H]2O)[C@H]1OC [ONC0000323, midecamycin] | 88.92 | –
6 | O=P1(N(CCCl)CCCl)NCCCO1 (centres unmarked) [ONC0000336, cyclophosphamide] | 62 | –
7 | O=C(O)CCCc1ccc(N(CCCl)CCCl)cc1 [ONC0000730, chlorambucil] | 84.26 | –
8 | COc1ccc2c(O[C@@H]3C[C@H]4C(=O)N[C@]5(C(=O)NS(=O)(=O)C6CC6)C[C@H]5/C=C\CCCCN(C)C(=O)[C@@H]4C3)cc(-c3nc(C(C)C)cs3)nc2c1C [ONC0000991, simeprevir] | 85.85 | –
9 | CC[C@@](C)(Nc1ccnc(-c2c[nH]c3ncccc23)n1)C(=O)NCC(F)(F)F [ONC0001022, decernotinib] | 66.72 | –
10 | O=C(Nc1nc2cccc(-c3ccc(CN4CCS(=O)(=O)CC4)cc3)n2n1)C1CC1 [ONC0001023, filgotinib] | 70.26 | –
11 | CC(C)(O)CNc1nc(Nc2ccnc(C(F)(F)F)c2)nc(-c2cccc(C(F)(F)F)n2)n1 [ONC0001138, enasidenib] | 67.01 | –
12 | CC1(C)CN(C(=O)c2ccc(-c3cccc4nc(NC(=O)C5CC5)nn34)cc2)C1 [ONC0001278, solcitinib] | 60.54 | –
13 | COc1cc(NC(=O)Nc2cccc(CNC(=O)O[C@H]3CCOC3)c2)ccc1-c1cnco1 [ONC0001842, merimepodib] | 78.29 | –
14 | O=C(O)C[C@H]1CC[C@H](c2ccc(-c3ccc(Nc4ccc(C(F)(F)F)nc4)cn3)cc2)CC1 [ONC0001945, pradigastat] | 103.8 | –
15 | CCCC(C)C1(CC)C(=O)NC(=S)NC1=O (centres unmarked) [ONC0001983, thiopental] | 75.11 | –
16 | CC(C)NCCCn1c(Sc2cc3c(cc2I)OCO3)nc2c(N)ncnc21 [ONC0002276, puh71] | 67.16 | –
17 | CCN(CC)C(C)C(=O)c1ccccc1 (centres unmarked) [ONC0002292, amfepramone] | 71.71 | –
18 | CC(=O)Oc1ccccc1C(=O)Nc1ncc([N+](=O)[O-])s1 [ONC0002436, nitazoxanide] | 87.75 | –
19 | c1ccc2oc(C3=NCCN3)cc2c1 [ONC0002719, 2bfi] | 76.35 | –
20 | CC(C)CN(C[C@@H](O)[C@H](Cc1ccccc1)NC(=O)O[C@H]1CCOC1)S(=O)(=O)c1ccc(N)cc1 [ONC0003406, amprenavir] | 51.58 | –
21 | COC(=O)[C@@H]1C[C@H](OC(C)=O)C(=O)[C@H]2[C@@]1(C)CC[C@H]1C(=O)O[C@H](c3ccoc3)C[C@]21C [ONC0003459, salvinorin a] | 35.37 | –
22 | CCOP(=S)(OCC)Oc1cc(C)nc(C(C)C)n1 [ONC0003874, dimpylate] | 60.75 | –

Row | Molecule | % viability ([2]; m. mycetomatis hyphae) [%] | further results
23 | COc1cccc([C@]2(O)CCCC[C@H]2CN(C)C)c1 [ONC0004178, tramadol hydrochloride] | 135.3 | –
24 | CS[C@H]1SC[C@H]2C(=O)N(C)[C@@H](C(C)C)C(=O)OC[C@@H](NC(=O)c3cnc4ccccc4n3)C(=O)N[C@@H](C)C(=O)N(C)[C@@H]1C(=O)N(C)[C@@H](C(C)C)C(=O)OC[C@@H](NC(=O)c1cnc3ccccc3n1)C(=O)N[C@@H](C)C(=O)N2C [ONC0004195, echinomycin] | 114.7 | –
25 | CCC1/C=C(\C)CC(C)CC(OC)C2OC(O)(C(=O)C(=O)N3CCCCC3C(=O)OC(/C(C)=C/C3CCC(O)C(OC)C3)C(C)C(O)CC1=O)C(C)CC2OC (centres unmarked) [ONC0004338, ascomycin fk520] | 150.4 | –
26 | CC(C)(CO)c1cc2cc(NC(=O)C3(c4ccc5c(c4)OC(F)(F)O5)CC3)c(F)cc2n1C[C@@H](O)CO [ONC0004399, vx661] | 112.4 | –
27 | CC(C)OC(=O)C(C)NP(=O)(COC(C)Cn1cnc2c(N)ncnc21)Oc1ccccc1 (centres unmarked) [ONC0004548, tenofovir alafenamide gs7340] | 45.02 | –
28 | CCO[C@H]1OC(=O)C[C@@H]1NC(=O)[C@@H]1CCCN1C(=O)[C@@H](NC(=O)c1ccc(N)c(Cl)c1)C(C)(C)C [ONC0004605, belnacasan vx765] | 74.26 | –
29 | CCC[C@H](NC(=O)[C@@H]1[C@H]2CCC[C@H]2CN1C(=O)[C@@H](NC(=O)[C@@H](NC(=O)c1cnccn1)C1CCCCC1)C(C)(C)C)C(=O)C(=O)NC1CC1 [ONC0004652, telaprevir vx950] | 71.4 | –
30 | Cc1cc(Nc2cc(N3CCN(C)CC3)nc(Sc3ccc(NC(=O)C4CC4)cc3)n2)[nH]n1 [ONC0004696, vx680 mk0457 tozasertib] | 120.2 | –
31 | NC(=O)c1ccc(N(C(N)=O)c2c(F)cccc2F)nc1-c1ccc(F)cc1F [ONC0004787, vx702] | 67.05 | –
32 | CC(C)(C)c1ccc(-c2nc3ccccc3[nH]2)cc1 [ONC0004834, zln005] | 87.04 | –
33 | CC(C)(C)C#Cc1cc(N(C(=O)[C@H]2CC[C@H](C)CC2)[C@H]2CC[C@@H](O)CC2)c(C(=O)O)s1 [ONC0004853, lomibuvir vx222 vch222] | 92.92 | –
34 | O=c1ncn2nc(Sc3ccc(F)cc3F)ccc2c1-c1c(Cl)cccc1Cl [ONC0004865, vx745] | 118.9 | –
35 | Cc1ccc(NC(=O)C2(c3ccc4c(c3)OC(F)(F)O4)CC2)nc1-c1cccc(C(=O)O)c1 [ONC0004867, vx809 lumacaftor] | 108.5 | –
36 | CC(C)(C)c1cc(C(C)(C)C)c(NC(=O)c2c[nH]c3ccccc3c2=O)cc1O [ONC0004880, ivacaftor vx770] | 126.9 | –
37 | CNCc1ccc(-c2cc(-c3nc(-c4ccc(S(=O)(=O)C(C)C)cc4)cnc3N)on2)cc1 [ONC0005048, ve822] | 77.72 | –
38 | Cc1sc2c(c1C)C(c1ccc(Cl)cc1)=N[C@@H](CC(=O)Nc1ccc(O)cc1)c1nnc(C)n1-2 [ONC0005184, otx015] | 99.78 | –
39 | CC[C@@]1(O)C(=O)OCc2c1cc1n(c2=O)Cc2cc3cc(O)ccc3nc2-1 [ONC0005199, 10hydroxycamptothecin] | 143.5 | –
40 | O=C(O)[C@]1(Cc2cccc(Nc3nccs3)n2)CC[C@@H](Oc2cccc(Cl)c2F)CC1 [ONC0005246, mk5108 vx689] | 132.5 | –
41 | Cn1c(=O)n(-c2ccc(C(C)(C)C#N)cc2)c2c3cc(-c4cnc5ccccc5c4)ccc3ncc21 [ONC0005249, dactolisib bez235 nvpbez235] | 133.4 | –
42 | Cc1cnc(Nc2ccc(F)cc2Cl)nc1-c1c[nH]c(C(=O)N[C@H](CO)c2cccc(Cl)c2)c1 [ONC0005411, vx11e] | 117 | –
43 | CC[C@H]1OC(=O)[C@H](C)[C@@H](O[C@H]2C[C@@](C)(OC)[C@@H](O)[C@H](C)O2)[C@H](C)[C@@H](O[C@@H]2O[C@H](C)C[C@H](N(C)C)[C@H]2O)[C@](C)(O)C[C@@H](C)[C@@H]2N[C@@H](COCCOC)O[C@H]([C@H]2C)[C@]1(C)O [ONC0005551, dirithromycin] | 98.9 | –
44 | gonadorelin acetate [ONC0002245] | – | % viability ([2]; primary screen, metabolic activity vs growth control, inhibitor): 141.9%
